Columns and labels:
rat [1] = conditions: Carcinogenicity, fischer, Oral, Gavage/Intubation, dose end: 24 month, group: systemic
rat [2] = conditions: Prenatal developmental toxicity study, fischer, Dermal, Topical, dose end: 15 GD, group: maternal
mouse [3] = conditions: Carcinogenicity, b6c3f1, Oral, Gavage/Intubation, dose end: 18 month, group: systemic
rat [4] = conditions: Multigenerational reproductive toxicity study, sprague dawley, Oral, Feed, dose end: 2 generation
dog [5] = conditions: Chronic toxicity, beagle, Oral, Feed, dose end: 15 month, group: systemic
rat [6] = conditions: Combined chronic toxicity/carcinogenicity, wistar, Oral, Feed, dose end: 2 year, group: systemic
rat [7] = conditions: Combined chronic toxicity/carcinogenicity, other, Oral, Feed, dose end: 2 year, group: systemic
rat [8] = conditions: Subchronic oral toxicity in rodents, wistar, Feed, dose end: 13 week, group: systemic, systemic / clinical chemistry / [other] / [other] + systemic / clinical chemistry / alkaline phosphatase (alp/alk) / alkaline phosphatase (…
mouse [9] = conditions: Subchronic oral toxicity in rodents, other, Feed, dose end: 13 week, group: systemic
mouse [10] = conditions: Carcinogenicity; other; Oral; Feed; dose end: 24 month; group: systemic; systemic / clinical chemistry / alkaline phosphatase (alp/alk) / alkaline phosphatase (alp/alk) + systemic / organ weight / heart / nos + …
rat [11] = conditions: Subchronic oral toxicity in rodents, other, Feed, dose end: 3 month, group: systemic
dog [12] = conditions: Subchronic oral toxicity in nonrodent, beagle, Capsule, dose end: 91 day, group: systemic
mouse [13] = conditions: Carcinogenicity, other, Oral, Feed, dose end: 18 month, group: systemic
rat [14] = conditions: Combined chronic toxicity/carcinogenicity, other, Oral, Feed, dose end: 2 year, group: systemic; remark: listed apart in the source
rat [15] = conditions: Multigenerational reproductive toxicity study, other, Oral, Feed, dose end: 2 generation
rabbit = conditions: Prenatal developmental toxicity study, other, Oral, Gavage/Intubation, dose end: 19 GD
dog [16] = conditions: Chronic toxicity; beagle; Oral; Capsule; dose end: 12 month; group: systemic; systemic / in life observation / clinical signs / fur (altered appearance) + systemic / in life observation / clinical signs / skin …
[17] = systemic / in life observation / body weight / body weight gain + systemic / in life observation / clinical signs / labored respiration + …
[18] = systemic / organ weight / stomach / relative to body weight + systemic / in life observation / body weight / body weight gain
[19] = systemic / in life observation / clinical signs / scabbing
[20] = systemic / organ weight / testes / relative to body weight
[21] = systemic / organ weight / testes / relative to body weight + systemic / pathology microscopic / liver / carcinoma + systemic / hematology / …
[22] = group: offspring, developmental / developmental landmark / eye opening / eye opening + developmental / developmental landmark / incisor eruption / incisor …
[23] = group: offspring, systemic / organ weight / adrenal gland / absolute
[24] = group: parental, systemic / organ weight / uterus / absolute
[25] = systemic / pathology gross / liver / accentuated lobular pattern + systemic / pathology microscopic / liver / fatty change
[26] = systemic / pathology gross / liver / accentuated lobular pattern + systemic / pathology microscopic / liver / fatty change + systemic / …
[27] = systemic / clinical chemistry / albumin / albumin + systemic / clinical chemistry / alkaline phosphatase (alp/alk) / alkaline phosphatase (…
[28] = systemic / pathology microscopic / lung / cholesterol cleft(s) + systemic / pathology microscopic / lung / foam cell aggregation
[29] = systemic / pathology microscopic / lung / cholesterol cleft(s) + systemic / pathology microscopic / lung / foam cell aggregation + systemic…
[30] = systemic / pathology microscopic / liver / necrosis
[31] = systemic / pathology microscopic / liver / necrosis + systemic / clinical chemistry / [other] / [other] + systemic / pathology microscopic…
[32] = systemic / in life observation / body weight / body weight + systemic / pathology microscopic / liver / hypertrophy + systemic / pathology …
[33] = systemic / in life observation / clinical signs / vomitting + systemic / organ weight / liver / relative to body weight + systemic / …
[34] = systemic / in life observation / body weight / body weight + systemic / in life observation / body weight / body weight gain
[35] = systemic / in life observation / body weight / body weight + systemic / in life observation / body weight / body weight gain + systemic / …
[36] = systemic / in life observation / body weight / body weight + systemic / in life observation / body weight / body weight gain + systemic / in…
[37] = group: offspring, systemic / in life observation / body weight / offspring (pup) weight
[38] = group: offspring, systemic / in life observation / body weight / offspring (pup) weight + developmental / developmental landmark / eye opening / eye opening
[39] = group: parental, systemic / pathology microscopic / kidney / pigmentation + systemic / pathology microscopic / spleen / erythrophagocytosis
[40] = group: parental, systemic / pathology microscopic / kidney / pigmentation + systemic / pathology microscopic / spleen / erythrophagocytosis + systemic / in …
[41] = group: developmental, developmental / developmental malformation / bone / fused
[42] = group: maternal, systemic / in life observation / body weight / body weight gain + systemic / in life observation / food consumption / food consumption + …

`CCCCC(CC)CO` (configuration not stated) [2-Ethyl-1-hexanol] was tested, and the LOAEL (rat [1]; [17]) was over 500 mg/kg/day, the NOAEL (rat [1]; [17]) was at least 500 mg/kg/day and the LEL (rat [1]; [18]) was 50 mg/kg/day. For the same molecule, the NEL (rat [1]; [18]) was under 50 mg/kg/day, the LOAEL (rat [2]; systemic / in life observation / clinical signs / erythema + systemic / in life observation / clinical signs / scabbing + systemic / …) was 840 mg/kg/day and the LEL (rat [2]; [19]) was 252 mg/kg/day. For the same molecule, the NEL (rat [2]; [19]) was under 252 mg/kg/day, the LEL (mouse [3]; [20]) was 50 mg/kg/day and the NEL (mouse [3]; [20]) was under 50 mg/kg/day. For the same molecule, the LOAEL (mouse [3]; [21]) was over 750 mg/kg/day and the NOAEL (mouse [3]; [21]) was at least 750 mg/kg/day.

Work on `COC(=O)C(C)Oc1ccc(Oc2ccc(Cl)cc2Cl)cc1` (configuration not stated) [Diclofop-methyl] yielded an LOAEL (rat [4]; [22]) of 7.3 mg/kg/day, an NOAEL (rat [4]; [22]) of 2.1 mg/kg/day and an LEL (rat [4]; [23]) of 0.9 mg/kg/day. For the same molecule, the NEL (rat [4]; [23]) was under 0.9 mg/kg/day, the LOAEL (rat [4]; group: parental, systemic / organ weight / liver / absolute + systemic / organ weight / liver / relative to body weight) was 2.1 mg/kg/day and the NOAEL (rat [4]; group: parental, systemic / organ weight / liver / absolute + systemic / organ weight / liver / relative to body weight + systemic / organ weight / kidney / …) was 0.7 mg/kg/day. The LEL (rat [4]; [24]) was 0.9 mg/kg/day, the NEL (rat [4]; [24]) was under 0.9 mg/kg/day and the LEL (dog [5]; [25]) was 0.625 mg/kg/day. For the same molecule, the LOAEL (dog [5]; [25]) was 0.625 mg/kg/day, the NEL (dog [5]; [26]) was 0.2 mg/kg/day and the NOAEL (dog [5]; [26]) was 0.2 mg/kg/day. For the same molecule, the LEL (rat [6]; [27]) was 2.3 mg/kg/day, the LOAEL (rat [6]; [27]) was 2.3 mg/kg/day and the NOAEL (rat [6]; [27]) was 0.23 mg/kg/day. For the same molecule, the NEL (rat [6]; systemic / hematology / hemoglobin (hgb) / hemoglobin (hgb) + systemic / hematology / erythrocyte (rbc) count differential / erythrocyte (…) was 0.23 mg/kg/day, the LEL (rat [7]; [28]) was 0.32 mg/kg/day and the LOAEL (rat [7]; [28]) was 0.32 mg/kg/day. The NEL (rat [7]; [29]) was 0.1 mg/kg/day, the NOAEL (rat [7]; [29]) was 0.1 mg/kg/day and the LEL (rat [8]) was 6.32 mg/kg/day. The LOAEL (rat [8]) was 6.32 mg/kg/day, the NOAEL (rat [8]) was 1.56 mg/kg/day and the LEL (mouse [9]; [30]) was 0.3 mg/kg/day. For the same molecule, the NEL (mouse [9]; [30]) was under 0.3 mg/kg/day, the LOAEL (mouse [9]; [31]) was 1 mg/kg/day and the NOAEL (mouse [9]; [31]) was 0.3 mg/kg/day. The LEL (mouse [10]) was 0.76 mg/kg/day, the LOAEL (mouse [10]) was 0.76 mg/kg/day and the NEL (mouse [10]) was 0.24 mg/kg/day. The NOAEL (mouse [10]) was 0.24 mg/kg/day.

Molecule `CO/N=C(/C(=O)OC)c1ccccc1CO/N=C(\C)c1cccc(C(F)(F)F)c1` [Trifloxystrobin] has an NEL (rat [11]; systemic / clinical chemistry / urea nitrogen / urea + systemic / urinalysis / ph / ph + systemic / clinical chemistry / glucose / glucose…) of 618 mg/kg/day, an LOAEL (rat [11]; [32]) of 127 mg/kg/day and an NOAEL (rat [11]; [32]) of 30.6 mg/kg/day. The LEL (dog [12]; systemic / clinical chemistry / bilirubin / total bilirubin) was 30 mg/kg/day, the LOAEL (dog [12]; [33]) was 150 mg/kg/day and the NEL (dog [12]; [33]) was 5 mg/kg/day. For the same molecule, the NOAEL (dog [12]; [33]) was 30 mg/kg/day, the LEL (mouse [13]; [34]) was 35.7 mg/kg/day and the LOAEL (mouse [13]; [34]) was 35.7 mg/kg/day. For the same molecule, the NEL (mouse [13]; [35]) was 3.51 mg/kg/day, the NOAEL (mouse [13]; [35]) was 3.51 mg/kg/day and the LEL (rat [14]; [34]) was 29.7 mg/kg/day. The LOAEL (rat [14]; [34]) was 29.7 mg/kg/day, the NEL (rat [14]; [36]) was 9.81 mg/kg/day and the NOAEL (rat [14]; [36]) was 9.81 mg/kg/day. For the same molecule, the LEL (rat [15]; [37]) was 65.5 mg/kg/day, the LOAEL (rat [15]; [37]) was 65.5 mg/kg/day and the NEL (rat [15]; [38]) was 4.2 mg/kg/day. It also gave an NOAEL (rat [15]; [38]) of 4.2 mg/kg/day, an LEL (rat [15]; [39]) of 55.3 mg/kg/day and an LOAEL (rat [15]; [39]) of 55.3 mg/kg/day. It also gave an NEL (rat [15]; [40]) of 3.8 mg/kg/day, an NOAEL (rat [15]; [40]) of 3.8 mg/kg/day and an LEL (rabbit; [41]) of 500 mg/kg/day. For the same molecule, the LOAEL (rabbit; [41]) was 500 mg/kg/day, the NEL (rabbit; [41]) was 250 mg/kg/day and the NOAEL (rabbit; [41]) was 250 mg/kg/day. The LEL (rabbit; [42]) was 50 mg/kg/day, the LOAEL (rabbit; [42]) was 50 mg/kg/day and the NEL (rabbit; [42]) was 10 mg/kg/day. It also gave an NOAEL (rabbit; [42]) of 10 mg/kg/day, an LEL (dog [16]) of 50 mg/kg/day and an LOAEL (dog [16]) of 50 mg/kg/day. For the same molecule, the NEL (dog [16]) was 5 mg/kg/day and the NOAEL (dog [16]) was 5 mg/kg/day.

— EPA's ToxRefDB 2
